Measured values: patent publication US20250368645A1, “BETA CARBOLINE ANALOGUES AS SELECTIVE AND BIASED KAPPA OPIOID RECEPTORS AGONISTS FOR TREATING VARIOUS ASSOCIATED PATHOPHYSIOLOGICAL CONDITIONS” (COUNCIL OF SCIENTIFIC AND INDUSTRIAL RESEARCH, priority 2022, published 2025)
Where two headings read alike, the source gives them in different places.

What was measured:
DOR = DOR (Homo sapiens, UniProt P41143); experiment: GloSensor assay at DOR; format: cell-based; details: given as Log IC50 (negative values)
MOR = MOR (Homo sapiens, UniProt P35372); experiment: GloSensor assay at MOR; format: cell-based; details: given as Log IC50 (negative values)
human KOR [1] = target: T1, human KOR (Homo sapiens, UniProt P41145); experiment: GloSensor assay, Gi-mediated cAMP inhibition in HEK-293T cells transfected with human KOR; format: cell-based; details: for G-Protein Bias factor (IC50 -Glosensor/- EC50 - Tango): KOR, GloSensor versus Tango;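 for agonist at KOR (pIC50): value taken from a statement in the text not a table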
Target sequence in this assay (P41145 whole entry): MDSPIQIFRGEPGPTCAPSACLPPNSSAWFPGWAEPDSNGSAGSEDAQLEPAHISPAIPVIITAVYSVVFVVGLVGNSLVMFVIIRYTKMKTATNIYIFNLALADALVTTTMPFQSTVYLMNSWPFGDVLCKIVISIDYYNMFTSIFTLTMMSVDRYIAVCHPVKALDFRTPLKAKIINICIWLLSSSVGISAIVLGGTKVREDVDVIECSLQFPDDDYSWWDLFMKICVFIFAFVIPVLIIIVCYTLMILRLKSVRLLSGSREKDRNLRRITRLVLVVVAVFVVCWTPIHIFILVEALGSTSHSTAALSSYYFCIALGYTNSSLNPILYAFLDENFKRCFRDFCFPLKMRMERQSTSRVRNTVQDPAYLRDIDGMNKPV

human KOR [2] = target: T1, human KOR; experiment: β-arrestin2 Tango assay in HTLA cells transiently transfected with human KOR; format: cell-based; details: Table 2, KOR; for EC50: read-out: B-arrestin Tango Assay (pEC50) (converted)
Target sequence in this assay (P41145 whole entry, added parts left off): as the sequence (P41145 whole entry) above

[3] = tested on: paclitaxel (PTX)-treated mice; experiment: Paclitaxel-induced peripheral neuropathy model; format: in vivo; details: 8abd 5 and 10 mg/kg p.o.; duloxetine 10 mg/kg; 16 days
[4] = Table 2, KOR, read-out: GloSensor Assay (pIC50) (converted)
[5] = given as Log IC50 (negative values), agonist activity, inhibition of FSK-stimulated cAMP, read-out: GloSensor Assay (Log IC50) KOR (converted)
[6] = read-out: agonist at KOR (pIC50) (converted)

Chain of MOR (P35372 whole entry): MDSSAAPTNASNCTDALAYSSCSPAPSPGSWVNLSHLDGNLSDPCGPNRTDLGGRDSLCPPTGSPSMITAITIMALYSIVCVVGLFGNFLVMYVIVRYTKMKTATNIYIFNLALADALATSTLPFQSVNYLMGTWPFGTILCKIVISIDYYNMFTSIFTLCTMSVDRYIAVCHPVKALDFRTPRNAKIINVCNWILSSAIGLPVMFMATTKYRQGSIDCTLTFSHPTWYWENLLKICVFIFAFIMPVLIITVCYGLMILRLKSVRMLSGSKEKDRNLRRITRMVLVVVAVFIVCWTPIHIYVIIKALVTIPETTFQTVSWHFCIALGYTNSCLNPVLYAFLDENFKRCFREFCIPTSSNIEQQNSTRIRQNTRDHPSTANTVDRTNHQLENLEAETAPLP
Chain of DOR (P41143 whole entry): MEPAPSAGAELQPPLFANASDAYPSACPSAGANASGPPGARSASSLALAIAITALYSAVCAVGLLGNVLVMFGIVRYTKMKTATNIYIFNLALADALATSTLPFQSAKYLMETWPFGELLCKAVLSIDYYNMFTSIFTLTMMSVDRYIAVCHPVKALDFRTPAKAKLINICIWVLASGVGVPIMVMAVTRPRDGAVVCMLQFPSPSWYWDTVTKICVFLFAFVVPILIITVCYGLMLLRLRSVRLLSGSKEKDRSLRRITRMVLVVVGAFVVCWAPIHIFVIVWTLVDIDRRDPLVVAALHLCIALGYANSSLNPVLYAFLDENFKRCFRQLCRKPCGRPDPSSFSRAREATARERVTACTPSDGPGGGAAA

Molecule | IC50 (DOR) [nM] | IC50 (MOR) [nM] | G-Protein Bias factor (IC50 -Glosensor/- EC50 - Tango) (human KOR [1]) | IC50 (human KOR [1]; [4]) [nM] | IC50 (human KOR [1]; [5]) [nM] | IC50 (human KOR [1]; [6]) [nM] | EC50 (human KOR [2]) [nM] | GloSensor Assay (Log IC50) DOR (DOR) | GloSensor Assay (Log IC50) MOR (MOR) | GloSensor Assay (pIC50) (human KOR [1]; Table 2, KOR) | GloSensor Assay (Log IC50) KOR (human KOR [1]; given as Log IC50 (negative values), agonist activity, inhibition of FSK-stimulated cAMP) | B-arrestin Tango Assay (pEC50) (human KOR [2]) | mechanical pain (mechanical hyperalgesia, Von frey hair test), chronic administration [3] | thermal hyperalgesia (Hargreaves test), chronic administration [3]
Fc1ccc(-n2c[n+]3ccc4c5ccccc5[nH]c4c3c2-c2ccccc2Cl)cc1.[Cl-] [8aed, 1-(2-Chlorophenyl)-2-(4-fluorophenyl)-2,11-dihydroimidazo[1′,5′:1,2]pyrido[3,4-b]indol-4-ium chloride] | > 10000 | > 10000 | 1.06 | 10 | 10 | < 31.6 | 115 | – | – | – | – | – | – | –
2-(4-Fluorophenyl)-1-(4-methoxyphenyl)-2,11-dihydroimidazo[1′,5′:1,2]pyrido[3,4-b]indol-4-ium [8aod] | – | – | 1.68 | – | – | – | – | >−5 | >−5 | 7.9 | −7.9 | 6.22 | – | –
Brc1ccc(-n2c[n+]3ccc4c5ccccc5[nH]c4c3c2-c2ccccc2Br)cc1.[Cl-] [8acb, 1-(2-Bromophenyl)-2-(4-bromophenyl)-2,11-dihydroimidazo[1′,5′:1,2]pyrido[3,4-b]indol-4-ium chloride] | > 10000 | > 10000 | 3.6 | 0.115 | 2.51 | < 31.6 | 457 | – | – | – | – | – | – | –
Clc1ccc(-n2c[n+]3ccc4c5ccccc5[nH]c4c3c2-c2ccccc2Br)cc1.[Cl-] [8acc, 1-(2-Bromophenyl)-2-(4-chlorophenyl)-2,11-dihydrolmidazo[1′,5′:1,2]pyrido[3,4-b]indol-4-ium] | 3980 | 2000 | 2.89 | 0.589 | 1.58 | < 31.6 | 457 | – | – | – | – | – | – | –
Cc1ccc(-c2c3c4[nH]c5ccccc5c4cc[n+]3cn2-c2ccc(F)cc2)cc1.[Cl-] [8akd, 2-(4-Fluorophenyl)-1-(p-tolyl)-2,11-dihydroimidazo[1′,5′:1,2]pyrido[3,4-b]indol-4-ium chloride] | > 10000 | > 10000 | 3.15 | 0.641 | 1.58 | < 31.6 | 916 | – | – | – | – | – | – | –
CNCC[C@H](Oc1cccc2ccccc12)c1cccs1 [duloxetine, reference compound] | – | – | – | – | – | – | – | – | – | – | – | – | significantly improved | significantly improved
Clc1ccc(-n2c[n+]3ccc4c5ccccc5[nH]c4c3c2-c2ccccc2Cl)cc1.[Cl-] [8aec, 1-(2-Chlorophenyl)-2-(4-chlorophenyl)-2,11-dihydroimidazo[1′,5′:1,2]pyrido[3,4-b]indol-4-ium chloride] | > 10000 | 501 | 1.23 | 7.94 | 7.94 | < 31.6 | 135 | – | – | – | – | – | – | –
Fc1ccc(-n2c[n+]3ccc4c5ccccc5[nH]c4c3c2-c2ccc(Cl)cc2)cc1.[Cl-] [8add, 1-(4-Chlorophenyl)-2-(4-fluorophenyl)-2,11-dihydroimidazo[1′,5′:1,2]pyrido[3,4-b]indol-4-ium chloride] | > 10000 | > 10000 | 2.67 | 2.94 | 3.98 | < 31.6 | 1380 | – | – | – | – | – | – | –
Fc1ccc(-n2c[n+]3ccc4c5ccccc5[nH]c4c3c2-c2ccccc2Br)cc1.[Cl-] [8acd, 1-(2-Bromophenyl)-2-(4-fluorophenyl)-2,11-dihydroimidazo[1′,5′:1,2]pyrido[3,4-b]indol-4-ium chloride] | > 10000 | > 10000 | 3 | 1.58 | 1.58 | < 31.6 | 1580 | – | – | – | – | – | – | –
Clc1ccc(-c2c3c4[nH]c5ccccc5c4cc[n+]3cn2-c2ccc(Br)cc2)cc1.[Cl-] [8adb, 2-(4-Bromophenyl)-1-(4-chlorophenyl)-2,11-dihydroimidazo[1′,5′:1,2]pyrido[3,4-b]indol-4-ium chloride] | > 10000 | > 10000 | 1.44 | 20 | 20 | < 31.6 | 550 | – | – | – | – | – | – | –
Clc1ccc(-n2c[n+]3ccc4c5ccccc5[nH]c4c3c2-c2ccc(Br)cc2)cc1.[Cl-] [8abc, 1-(4-Bromophenyl)-2-(4-chlorophenyl)-2,11-dihydromidazo[1′,5′:1,2]pyrido[3,4-b]indol-4-ium chloride] | > 10000 | > 10000 | 2.35 | 1.12 | 0.631 | < 31.6 | 251 | – | – | – | – | – | – | –
Brc1ccc(-c2c3c4[nH]c5ccccc5c4cc[n+]3cn2-c2cccc(Br)c2)cc1.[Cl-] [8abe, 2-(3-Bromophenyl)-1-(4-bromophenyl)-2,11-dihydroimidazo[1′,5′:1,2]pyrido[3,4-b]indol-4-ium chloride] | > 10000 | > 10000 | 1.72 | 12.9 | 1.26 | < 31.6 | 676 | – | – | – | – | – | – | –
Brc1ccccc1-c1c2c3[nH]c4ccccc4c3cc[n+]2cn1-c1ccccc1 [8aca, 1-(2-Bromophenyl)-2-phenyl-2,11-dihydroimidazo[1′,5′:1,2]pyrido[3,4-b]indol-4-ium chloride] | 3160 | > 10000 | – | – | 200 | – | – | – | – | – | – | – | – | –
COc1ccc(-n2c[n+]3ccc4c5ccccc5[nH]c4c3c2-c2ccc(Cl)cc2)cc1 [8adg, 1-(4-Chlorophenyl)-2-(4-methoxyphenyl)-2,11-dihydroimidazo[1′,5′:1,2]pyrido[3,4-b]indol-4-ium chloride] | > 10000 | > 10000 | – | – | 794 | – | – | – | – | – | – | – | – | –
Fc1ccc(-n2c[n+]3c4ccccc4c4c5ccccc5[nH]c4c3c2-c2ccccc2)cc1 [12ad, 2-(4-Fluorophenyl)-1-phenyl-2,13-dihydroimidazo[1,5-a]indolo[2,3-c]quinolin-4-ium chloride] | > 10000 | > 10000 | – | – | > 10000 | – | – | – | – | – | – | – | – | –
Fc1ccc(-c2c3c4[nH]c5ccccc5c4cc[n+]3cn2-c2ccc(Br)cc2)cc1 [8agb, 2-(4-Bromophenyl)-1-(4-fluorophenyl)-2,11-dihydroimidazo[1′,5′:1,2]pyrido[3,4-b]indol-4-ium chloride] | > 10000 | > 10000 | – | – | > 10000 | – | – | – | – | – | – | – | – | –
CC(C)(C)c1ccc(Cn2c[n+]3ccc4c5ccccc5[nH]c4c3c2-c2ccc(Br)cc2)cc1 [9aac, 1-(4-Bromophenyl)-2-(4-(tert-butyl)benzyl)-2,11-dihydroimidazo[1′,5′:1,2]pyrido[3,4-b]indol-4-ium chloride] | > 10000 | > 10000 | – | – | > 10000 | – | – | – | – | – | – | – | – | –
Fc1ccc(-n2c[n+]3ccc4c5ccccc5[nH]c4c3c2-c2cccc(Cl)c2)cc1 [8afd, 1-(3-Chlorophenyl)-2-(4-fluorophenyl)-2,11-dihydroimidazo[1′,5′:1,2]pyrido[3,4-b]indol-4-ium chloride] | > 10000 | > 10000 | – | – | 1820 | – | – | – | – | – | – | – | – | –
COC(=O)c1cc2c3ccccc3[nH]c2c2c(-c3ccc(Br)cc3)n(-c3ccc(F)cc3)c[n+]12 [8bbd, 1-(4-Bromophenyl)-2-(4-fluorophenyl)-5-(methoxycarbonyl)-2,11-dihydroimidazo[1′,5′:1,2]pyrido[3,4-b]indol-4-iumchloride] | > 10000 | > 10000 | – | – | > 10000 | – | – | – | – | – | – | – | – | –
Clc1ccc(-c2c3c4[nH]c5ccccc5c4cc[n+]3cn2-c2ccc(Cl)cc2)cc1.[Cl-] [8adc, 1,2-Bis(4-chlorophenyl)-2,11-dihydrolmidazo[1′,5′:1,2]pyrido[3,4-b]indol-4-ium chloride] | > 10000 | > 10000 | 3.28 | 0.501 | 1.58 | < 31.6 | 955 | – | – | – | – | – | – | –
Clc1cccc(-n2c[n+]3ccc4c5ccccc5[nH]c4c3c2-c2ccccc2Br)c1 [8acf, 1-(2-Bromophenyl)-2-(3-chlorophenyl)-2,11-dihydroimidazo[1′,5′:1,2]pyrido[3,4-b]indol-4-ium chloride] | > 10000 | > 10000 | – | – | 63.1 | – | – | – | – | – | – | – | – | –
